Data published in doi:10.1101/2025.05.08.652848v1 (biorxiv, 2025).

What was measured:
Type in all cases: binding
[1] = biological target: T1, PPARA/RXRA LBD heterodimer (Homo sapiens, UniProt Q07869); assay: TR-FRET NCOR1 ID2 peptide recruitment
T1 sequence (Q07869 196-468 limits assumed): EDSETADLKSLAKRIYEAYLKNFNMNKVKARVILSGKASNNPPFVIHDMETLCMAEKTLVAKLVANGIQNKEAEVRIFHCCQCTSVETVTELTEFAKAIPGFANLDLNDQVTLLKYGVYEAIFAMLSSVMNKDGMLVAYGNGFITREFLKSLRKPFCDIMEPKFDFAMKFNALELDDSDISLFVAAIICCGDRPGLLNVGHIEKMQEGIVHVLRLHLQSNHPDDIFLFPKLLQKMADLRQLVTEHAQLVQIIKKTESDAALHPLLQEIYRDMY
T1 sequence (P19793 228-462 partner): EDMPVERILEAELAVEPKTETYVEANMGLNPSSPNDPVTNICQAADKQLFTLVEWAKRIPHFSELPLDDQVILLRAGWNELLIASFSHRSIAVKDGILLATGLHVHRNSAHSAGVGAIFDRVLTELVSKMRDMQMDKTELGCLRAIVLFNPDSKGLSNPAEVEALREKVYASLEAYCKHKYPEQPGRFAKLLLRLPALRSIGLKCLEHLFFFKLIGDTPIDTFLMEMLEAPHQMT

[2] = biological target: T2, RXRA:PPARG LBD heterodimer (Homo sapiens, UniProt P37231); assay: TR-FRET NCOR1 ID2 peptide recruitment
T2 sequence (P37231 231-505): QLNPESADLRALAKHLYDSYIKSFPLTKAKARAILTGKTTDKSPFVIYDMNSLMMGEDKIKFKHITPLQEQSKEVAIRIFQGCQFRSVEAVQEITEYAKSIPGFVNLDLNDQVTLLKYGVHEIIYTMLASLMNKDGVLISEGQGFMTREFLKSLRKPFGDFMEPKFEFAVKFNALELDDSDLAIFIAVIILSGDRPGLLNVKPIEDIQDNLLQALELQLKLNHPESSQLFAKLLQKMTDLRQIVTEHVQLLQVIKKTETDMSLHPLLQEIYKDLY
T2 sequence (P19793 228-462 partner): T1 sequence (P19793 228-462 partner)

[3] = biological target: T3, PPARD/RXRA LBD heterodimer (Homo sapiens, UniProt Q03181); assay: TR-FRET NCOR1 ID2 peptide recruitment
T3 sequence (Q03181 171-441 limits assumed): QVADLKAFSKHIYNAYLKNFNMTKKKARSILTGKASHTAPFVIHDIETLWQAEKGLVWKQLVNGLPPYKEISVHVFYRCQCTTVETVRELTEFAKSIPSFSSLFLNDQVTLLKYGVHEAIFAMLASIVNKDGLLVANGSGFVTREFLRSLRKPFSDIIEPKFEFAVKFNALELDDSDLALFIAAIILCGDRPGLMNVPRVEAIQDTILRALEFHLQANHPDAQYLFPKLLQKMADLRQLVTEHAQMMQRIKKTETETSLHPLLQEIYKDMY
T3 sequence (P19793 228-462 partner): T1 sequence (P19793 228-462 partner)

[4] = biological target: T2, RXRA:PPARG LBD heterodimer; assay: TR-FRET MED1 LxxLL peptide blockade

SMILES | EC50 [1] [nM] | EC50 [2] [nM] | EC50 [3] [nM] | IC50 [4] [nM]
CS(=O)(=O)c1ccc(C#N)cc1-c1cc(=O)c2c(F)cc(F)cc2[nH]1 [FX-909, 3-(5,7-difluoro-4-oxo-1,4-dihydroquinolin-2-yl)-4-(methylsulfonyl)benzonitrile] | > 100000 | 200 ± 30 | > 100000 | 
N#Cc1ccc(F)c(-c2cc(=O)c3c(F)cc(F)cc3[nH]2)c1 [FTX-6822, 3-(5,7-difluoro-4-oxo-1,4-dihydro-2-quinolyl)-4-fluorobenzonitrile] |  | 5000 |  | 
O=C(Nc1ccccc1)c1cc([N+](=O)[O-])ccc1Cl [GW9662] |  |  |  | 97 ± 38
N#Cc1ccc(Br)c(-c2cc(=O)c3c(F)cc(F)cc3[nH]2)c1 [FTX-6713, 4-bromo-3-(5,7-difluoro-4-oxo-1,4-dihydroquinolin-2-yl)benzonitrile] |  | 70 ± 8 |  | 
N#Cc1ccc(Cl)c(-c2cc(=O)c3c(F)cc(F)cc3[nH]2)c1 [FTX-6746, 4-Chloro-3-(5,7-difluoro-4-oxo-1,4-dihydroquinolin-2-yl)benzonitrile] |  | 690 ± 70 |  | 740 ± 160
